Results published in patent publication US6624149B2, “Method for nucleic acid transfection of cells” (Genteric, Inc., priority 2000, dated 2003).

System: rat salivary gland (submandibular gland)
Experiment: Intraductal transfection of rat salivary gland with pCMV.FOX.Luc-2, luciferase assay
Type: in vivo
Conditions: 48 hours
Protocol: Nucleic acid/transition metal enhancer mixtures were prepared by sequentially adding deionized water or a buffered solution, DNA, and a desired transition metal enhancer to a polystyrene tube with mixing. “Free” (i.e., “Naked”) DNA controls were prepared by sequentially adding DNA to water or a buffered solution
Male Sprague-Dawley rats (260-280 g) were fasted the night prior to treatment. After administration of the anesthesia (see Section 6.1.3), both right and left salivary gland ducts (specifically, Wharton's duct) were cannulated with fine polyurethane tubing (i.d. 0.005″) and cemented into the desired location. Atropine was then administered subcutaneously (0.5 mg/kg) and, after eight minutes, 50 μl of the nucleic acid/transition metal enhancer mixture was injected, infused, instilled or administered at the ductal orifice or directly into the duct at any point along its length. See Goldfine, Nature Biotechnology 15:1378, 1997.
Regardless of whether a liposome/transition metal/nucleic acid mixture or a nucleic acid/transition metal enhancer mixture was delivered, the tubing and mixture was kept in place for ten additional minutes after application of the mixture prior to removal. At 48 hours post atropine administration, the rats were anesthetized by intraperitoneal injection of pentobarbital (50 mg/kg). The right and left submandibular glands were surgically removed, and the tissues were assayed for any observable reporter gene (luciferase of hGH) expression using the methods described below.
The presently claimed invention describes a new method using a combination of a transition metal enhancer and a nucleic acid of interest for gene delivery. The present invention provides a method which may enhance gene expression by improving the efficiency of gene delivery. This change in gene expression can be quantitated using various assays, such as the luciferase assay. de Wet et al., Molec. Cell Biol. 7:725, 1987. In various experiments described herein, the right and left submandibular glands were removed from the male Sprague-Dawley rats at 48 hours post administration of the pCMV.FOX.Luc-2 containing solution. In additional experiments other organs, such as the rat lungs, were used.
In experiments in which submandibular glands were tested, the amount of luciferase present in the right and left submandibular gland of each male Sprague-Dawley rat was measured independently and treated as separate, individual experiments (e.g., trials) because the amount of luciferase expressed by one submandibular gland is independent of the amount of luciferase expressed in the other submandibular gland. Therefore, each submandibular gland was independently lysed in lysis buffer (1.0 ml buffer per 0.1 g tissue) to create a lysis homogenate. The lysis buffer contained 100 mM K2PO4 pH 7.0, 1 mM dithiothreitol, and 1% Triton X-100. A 100 μl aliquot of lysis homogenate from each submandibular gland was analyzed for luciferase activity (de Wet et al., Molec. Cell Biol. 7:725, 1987) using a Monolight 2010 luminometer (Analytical Luminescence Laboratories). Accordingly, luciferase light emissions from each aliquot of the lysis homogenate were measured over a ten second period.
Activity was expressed as relative light units, values collectively representing the assay conditions, luciferase concentration, luminometer photomultiplier tube sensitivity and background. Using well known techniques, the luciferase light units may be converted, for example, to picograms of luciferase protein. See, e.g., Felgner et al., U.S. Pat. No. 5,580,899 at Example 13. All experiments were performed in duplicate. In experiments using submandibular glands, data from each individual submandibular gland lysis homogenate is reported as a single trial.

## [Cl-].[Cl-].[Zn+2] [ZnCl2, zinc chloride]
Table 2, metal chloride 0.9 mM, 32 μg DNA in 50 μl, eight glands
  Average relative light units: 63842 relative light units
Table 3, metal chloride 0.9 mM, 32 μg DNA in 50 μl, Tris-HCl/EDTA, eight glands
  Average relative light units: 5685 relative light units
Table 6, zinc 3.6 mM, 128 μg DNA in 50 μl
  Average relative light units: 243362 relative light units
Table 7, ZnCl2 3.6 mM, pH 5.5, 128 μg DNA in 50 μl
  Average relative light units: 252446 relative light units
Table 7, ZnCl2 3.6 mM, pH 6.5, 128 μg DNA in 50 μl
  Average relative light units: 196002 relative light units
Table 7, ZnCl2 3.6 mM, pH 7.5, 128 μg DNA in 50 μl
  Average relative light units: 260340 relative light units
Table 7, ZnCl2 3.6 mM, pH 8.5, 128 μg DNA in 50 μl
  Average relative light units: 277958 relative light units
